Measured values published in article PMC5080985 (Journal of medicinal chemistry, 2015).

What was measured:
AmpC β-lactamase = AmpC β-lactamase (Escherichia coli, UniProt P00811); experiment: Controls for colloidal aggregation; details: AmpC β-lactamase counterscreen, particle formation by DLS
KDM4C [1] = target: T1, KDM4C (Homo sapiens, UniProt Q9H3R0); experiment: Thermal shift assay; type: binding
T1 sequence (Q9H3R0 1-1056): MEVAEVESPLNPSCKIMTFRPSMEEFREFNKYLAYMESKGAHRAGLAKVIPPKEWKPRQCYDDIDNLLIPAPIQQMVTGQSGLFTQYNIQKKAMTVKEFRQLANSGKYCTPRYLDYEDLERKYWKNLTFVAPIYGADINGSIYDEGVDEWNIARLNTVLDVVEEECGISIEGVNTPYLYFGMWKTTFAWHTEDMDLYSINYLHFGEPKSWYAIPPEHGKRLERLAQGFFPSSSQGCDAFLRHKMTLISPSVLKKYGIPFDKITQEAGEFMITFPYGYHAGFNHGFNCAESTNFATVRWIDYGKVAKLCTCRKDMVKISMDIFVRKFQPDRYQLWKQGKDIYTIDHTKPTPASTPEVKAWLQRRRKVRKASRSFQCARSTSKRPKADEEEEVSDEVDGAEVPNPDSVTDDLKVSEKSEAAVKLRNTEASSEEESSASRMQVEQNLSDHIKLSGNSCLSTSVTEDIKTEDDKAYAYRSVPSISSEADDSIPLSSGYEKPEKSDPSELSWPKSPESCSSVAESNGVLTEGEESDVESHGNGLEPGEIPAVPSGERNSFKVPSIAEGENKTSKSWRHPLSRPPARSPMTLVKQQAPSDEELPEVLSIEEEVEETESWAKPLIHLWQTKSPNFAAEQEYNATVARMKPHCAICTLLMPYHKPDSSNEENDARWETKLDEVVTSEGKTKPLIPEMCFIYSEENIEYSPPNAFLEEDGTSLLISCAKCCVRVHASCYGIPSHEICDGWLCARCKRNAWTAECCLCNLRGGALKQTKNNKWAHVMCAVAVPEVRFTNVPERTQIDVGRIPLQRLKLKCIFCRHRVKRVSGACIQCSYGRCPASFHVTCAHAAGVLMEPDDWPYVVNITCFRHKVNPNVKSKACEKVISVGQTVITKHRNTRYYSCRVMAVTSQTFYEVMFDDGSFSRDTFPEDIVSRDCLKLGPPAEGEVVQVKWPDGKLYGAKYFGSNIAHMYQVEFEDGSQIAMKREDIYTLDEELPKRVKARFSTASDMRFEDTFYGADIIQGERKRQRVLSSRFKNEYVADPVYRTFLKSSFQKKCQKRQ

FIH = FIH (Homo sapiens, UniProt Q9NWT6); experiment: MALDI counterscreen, FIH; type: biochemical
KDM4C [2] = target: T1, KDM4C; experiment: MALDI assay, KDM4C; type: biochemical
KDM5B (JARID1B, PLU-1) = KDM5B (JARID1B, PLU-1) (Homo sapiens, UniProt Q9UGL1); experiment: AlphaScreen counterscreen, KDM5B; type: biochemical
KDM4C [3] = target: T2, KDM4C (Homo sapiens, UniProt Q9H3R0); experiment: KDM4C time-resolved FRET; type: biochemical
T2 sequence (Q9H3R0 1-352): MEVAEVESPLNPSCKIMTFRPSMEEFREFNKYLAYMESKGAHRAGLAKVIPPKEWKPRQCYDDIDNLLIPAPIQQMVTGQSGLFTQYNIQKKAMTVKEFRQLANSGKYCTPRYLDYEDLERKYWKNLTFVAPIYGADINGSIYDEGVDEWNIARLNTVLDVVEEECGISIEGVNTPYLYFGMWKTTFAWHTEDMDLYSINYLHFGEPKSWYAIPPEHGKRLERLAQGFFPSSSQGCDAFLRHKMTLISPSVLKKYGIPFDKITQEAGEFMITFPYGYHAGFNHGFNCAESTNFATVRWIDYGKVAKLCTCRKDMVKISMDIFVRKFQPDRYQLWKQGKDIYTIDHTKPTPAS

KDM2A (FBXL11) = target: T3, KDM2A (FBXL11) (Homo sapiens, UniProt Q9Y2K7); experiment: AlphaScreen counterscreen, KDM2A; type: biochemical
T3 sequence (Q9Y2K7 1-1162): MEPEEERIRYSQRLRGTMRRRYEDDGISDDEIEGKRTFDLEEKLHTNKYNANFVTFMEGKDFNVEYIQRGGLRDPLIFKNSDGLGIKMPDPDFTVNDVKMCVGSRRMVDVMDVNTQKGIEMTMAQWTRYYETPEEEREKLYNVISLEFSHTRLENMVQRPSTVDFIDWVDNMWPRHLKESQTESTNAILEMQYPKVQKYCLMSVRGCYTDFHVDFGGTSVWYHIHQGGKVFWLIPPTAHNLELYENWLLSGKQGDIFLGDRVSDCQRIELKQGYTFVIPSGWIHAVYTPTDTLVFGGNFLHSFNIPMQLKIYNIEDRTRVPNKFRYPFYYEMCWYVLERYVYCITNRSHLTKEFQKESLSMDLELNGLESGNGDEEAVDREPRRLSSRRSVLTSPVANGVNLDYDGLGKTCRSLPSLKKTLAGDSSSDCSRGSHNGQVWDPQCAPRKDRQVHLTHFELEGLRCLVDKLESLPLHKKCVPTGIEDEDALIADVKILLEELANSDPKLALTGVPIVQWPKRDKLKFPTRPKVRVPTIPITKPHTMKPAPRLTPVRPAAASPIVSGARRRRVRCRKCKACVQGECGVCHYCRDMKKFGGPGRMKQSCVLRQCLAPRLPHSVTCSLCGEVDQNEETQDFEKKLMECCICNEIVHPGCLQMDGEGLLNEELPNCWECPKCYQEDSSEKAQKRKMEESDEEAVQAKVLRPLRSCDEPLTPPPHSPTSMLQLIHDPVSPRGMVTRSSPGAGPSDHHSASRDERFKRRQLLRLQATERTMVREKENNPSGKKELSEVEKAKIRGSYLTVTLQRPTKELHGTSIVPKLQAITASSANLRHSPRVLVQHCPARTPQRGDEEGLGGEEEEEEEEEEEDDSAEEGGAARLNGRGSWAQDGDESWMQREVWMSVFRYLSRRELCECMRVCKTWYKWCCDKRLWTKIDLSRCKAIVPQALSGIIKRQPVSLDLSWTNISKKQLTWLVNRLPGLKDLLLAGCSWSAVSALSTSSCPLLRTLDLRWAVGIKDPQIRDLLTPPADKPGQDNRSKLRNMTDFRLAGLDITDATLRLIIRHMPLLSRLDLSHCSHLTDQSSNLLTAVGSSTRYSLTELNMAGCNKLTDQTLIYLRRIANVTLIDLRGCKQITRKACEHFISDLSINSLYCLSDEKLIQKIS

KDM6B (JMJD3) = KDM6B (JMJD3) (Homo sapiens, UniProt O15054); experiment: AlphaScreen counterscreen, KDM6B; type: biochemical
KDM6B (JMJD3), sequence (O15054 whole entry, species assumed): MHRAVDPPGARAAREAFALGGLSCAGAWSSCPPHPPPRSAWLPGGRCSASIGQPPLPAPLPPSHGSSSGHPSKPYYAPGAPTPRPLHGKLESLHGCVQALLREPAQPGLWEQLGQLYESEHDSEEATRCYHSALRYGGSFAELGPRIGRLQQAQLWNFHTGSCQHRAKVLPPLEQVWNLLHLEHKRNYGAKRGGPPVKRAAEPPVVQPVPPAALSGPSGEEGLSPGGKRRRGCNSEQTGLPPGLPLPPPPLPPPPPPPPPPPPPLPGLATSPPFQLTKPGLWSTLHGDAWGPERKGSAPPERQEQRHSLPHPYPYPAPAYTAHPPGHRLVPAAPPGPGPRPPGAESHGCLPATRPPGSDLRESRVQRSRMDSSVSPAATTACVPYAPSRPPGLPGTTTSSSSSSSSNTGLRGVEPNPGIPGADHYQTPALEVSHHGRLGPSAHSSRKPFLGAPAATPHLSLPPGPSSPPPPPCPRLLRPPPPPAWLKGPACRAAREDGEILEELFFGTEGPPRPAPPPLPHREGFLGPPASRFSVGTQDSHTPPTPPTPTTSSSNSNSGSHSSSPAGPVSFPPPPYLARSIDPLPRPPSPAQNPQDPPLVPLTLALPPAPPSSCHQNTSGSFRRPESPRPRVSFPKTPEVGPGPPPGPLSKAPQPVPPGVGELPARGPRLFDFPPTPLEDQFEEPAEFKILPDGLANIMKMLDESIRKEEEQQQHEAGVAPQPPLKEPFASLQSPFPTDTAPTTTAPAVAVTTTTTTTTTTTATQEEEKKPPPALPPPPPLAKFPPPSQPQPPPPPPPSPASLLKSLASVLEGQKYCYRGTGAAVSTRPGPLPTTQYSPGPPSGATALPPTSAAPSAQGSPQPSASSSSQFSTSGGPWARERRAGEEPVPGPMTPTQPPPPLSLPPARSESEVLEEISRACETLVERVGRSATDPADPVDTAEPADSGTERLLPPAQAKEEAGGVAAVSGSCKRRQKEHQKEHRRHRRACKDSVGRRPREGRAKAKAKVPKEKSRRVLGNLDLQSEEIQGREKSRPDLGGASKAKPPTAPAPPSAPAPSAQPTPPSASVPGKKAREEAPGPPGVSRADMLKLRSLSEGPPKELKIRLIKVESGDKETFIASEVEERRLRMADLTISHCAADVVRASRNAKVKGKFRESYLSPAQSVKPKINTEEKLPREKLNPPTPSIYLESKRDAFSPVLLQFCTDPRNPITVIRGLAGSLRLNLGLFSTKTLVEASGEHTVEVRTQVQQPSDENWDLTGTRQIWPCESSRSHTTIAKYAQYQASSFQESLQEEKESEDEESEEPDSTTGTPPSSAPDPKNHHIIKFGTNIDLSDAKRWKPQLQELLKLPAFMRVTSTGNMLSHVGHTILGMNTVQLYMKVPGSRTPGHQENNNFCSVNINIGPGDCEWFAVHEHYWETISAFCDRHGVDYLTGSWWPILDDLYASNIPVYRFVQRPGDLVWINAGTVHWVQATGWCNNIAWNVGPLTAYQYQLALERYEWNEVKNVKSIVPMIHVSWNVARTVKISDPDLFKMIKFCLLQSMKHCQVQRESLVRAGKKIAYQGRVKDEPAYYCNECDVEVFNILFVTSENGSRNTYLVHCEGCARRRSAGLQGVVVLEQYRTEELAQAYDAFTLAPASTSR

FIH, sequence (Q9NWT6 whole entry): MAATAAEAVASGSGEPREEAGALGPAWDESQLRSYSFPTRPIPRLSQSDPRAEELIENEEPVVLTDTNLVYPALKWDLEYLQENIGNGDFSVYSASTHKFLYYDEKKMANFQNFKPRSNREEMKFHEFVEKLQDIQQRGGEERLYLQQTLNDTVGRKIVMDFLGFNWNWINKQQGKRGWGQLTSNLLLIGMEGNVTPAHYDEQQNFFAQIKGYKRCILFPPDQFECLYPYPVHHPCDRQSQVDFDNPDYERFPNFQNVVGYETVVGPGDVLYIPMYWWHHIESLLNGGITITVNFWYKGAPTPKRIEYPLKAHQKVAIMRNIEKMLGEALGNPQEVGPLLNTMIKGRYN
AmpC β-lactamase, sequence (P00811 20-377): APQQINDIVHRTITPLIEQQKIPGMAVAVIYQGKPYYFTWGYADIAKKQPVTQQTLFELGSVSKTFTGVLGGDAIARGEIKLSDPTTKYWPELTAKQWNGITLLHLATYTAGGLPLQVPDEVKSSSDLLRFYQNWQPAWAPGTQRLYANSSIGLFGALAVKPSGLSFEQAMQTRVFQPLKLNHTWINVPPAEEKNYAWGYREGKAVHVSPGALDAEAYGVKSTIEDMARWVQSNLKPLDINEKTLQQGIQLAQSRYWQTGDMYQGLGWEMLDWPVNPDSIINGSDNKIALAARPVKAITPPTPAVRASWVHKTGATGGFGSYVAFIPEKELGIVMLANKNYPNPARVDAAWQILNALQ
KDM5B (JARID1B, PLU-1), sequence (Q9UGL1 whole entry, species assumed): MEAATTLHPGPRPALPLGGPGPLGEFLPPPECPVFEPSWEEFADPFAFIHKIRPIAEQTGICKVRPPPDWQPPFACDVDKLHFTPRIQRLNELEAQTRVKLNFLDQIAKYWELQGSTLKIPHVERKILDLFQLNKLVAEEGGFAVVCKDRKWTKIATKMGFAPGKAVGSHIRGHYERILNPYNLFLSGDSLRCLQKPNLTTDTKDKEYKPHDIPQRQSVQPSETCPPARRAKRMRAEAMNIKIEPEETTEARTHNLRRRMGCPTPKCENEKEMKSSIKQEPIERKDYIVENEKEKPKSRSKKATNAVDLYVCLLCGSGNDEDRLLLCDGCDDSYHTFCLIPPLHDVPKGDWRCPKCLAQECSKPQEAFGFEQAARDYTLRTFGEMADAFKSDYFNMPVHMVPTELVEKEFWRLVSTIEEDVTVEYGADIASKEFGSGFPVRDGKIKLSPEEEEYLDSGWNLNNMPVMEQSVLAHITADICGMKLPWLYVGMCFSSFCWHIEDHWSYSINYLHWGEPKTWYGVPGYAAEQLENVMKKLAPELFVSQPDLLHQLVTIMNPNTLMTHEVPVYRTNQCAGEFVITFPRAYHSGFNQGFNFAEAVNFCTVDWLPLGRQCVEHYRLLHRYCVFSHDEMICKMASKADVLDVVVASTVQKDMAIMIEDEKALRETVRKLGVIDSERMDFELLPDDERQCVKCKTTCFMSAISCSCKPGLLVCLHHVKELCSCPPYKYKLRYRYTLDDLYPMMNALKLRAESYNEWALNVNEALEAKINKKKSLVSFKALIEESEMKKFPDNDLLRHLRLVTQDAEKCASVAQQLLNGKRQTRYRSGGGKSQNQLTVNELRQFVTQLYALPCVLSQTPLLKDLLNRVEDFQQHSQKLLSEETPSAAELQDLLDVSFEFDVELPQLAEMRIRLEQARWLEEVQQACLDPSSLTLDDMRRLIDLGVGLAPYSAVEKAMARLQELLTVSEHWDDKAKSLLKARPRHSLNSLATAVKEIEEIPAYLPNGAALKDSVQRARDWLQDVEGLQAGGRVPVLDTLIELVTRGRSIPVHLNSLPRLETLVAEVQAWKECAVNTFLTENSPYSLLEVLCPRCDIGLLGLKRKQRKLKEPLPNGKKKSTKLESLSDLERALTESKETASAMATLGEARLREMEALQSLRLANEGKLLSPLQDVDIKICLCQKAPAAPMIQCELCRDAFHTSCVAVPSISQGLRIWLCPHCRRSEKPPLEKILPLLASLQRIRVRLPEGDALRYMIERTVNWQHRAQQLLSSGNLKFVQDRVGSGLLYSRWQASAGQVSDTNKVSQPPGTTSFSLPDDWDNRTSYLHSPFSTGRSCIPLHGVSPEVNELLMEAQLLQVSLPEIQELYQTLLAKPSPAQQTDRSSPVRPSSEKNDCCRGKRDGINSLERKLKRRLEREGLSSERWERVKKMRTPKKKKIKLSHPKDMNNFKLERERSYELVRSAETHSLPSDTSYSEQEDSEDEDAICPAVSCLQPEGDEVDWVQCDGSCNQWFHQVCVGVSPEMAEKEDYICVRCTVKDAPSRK

In the case of Cn1nccc1CNc1ccc(O)c(C(=O)O)c1 [Compound 4], the “nonspecific inhibition / colloidal aggregation” value (AmpC β-lactamase) is reported as “neither of the two inhibitors acted as aggregators in a relevant concentration range”.

COCC(=O)Nc1ccc(O)c(C(=O)O)c1 [Compound 5] was tested, and the “nonspecific inhibition / colloidal aggregation” value (AmpC β-lactamase) was “neither of the two inhibitors acted as aggregators in a relevant concentration range”.

For Cc1ccccc1CNc1ccc(O)c(C(=O)O)c1 [Compound 20], the “stabilization of the enzyme in thermal shift assays” value (KDM4C [1]) was “stabilized the enzyme in thermal shift assays” and the “nonspecific inhibition / colloidal aggregation” value (AmpC β-lactamase) was “did not exhibit nonspecific inhibition”.

With Nc1ccc(O)c(-c2cc(C(=O)O)ccn2)c1 [Compound 30, 2-(5-Amino-2-hydroxyphenyl)-isonicotinic Acid] the IC50 (FIH) was 828 µM, the “fold selectivity over KDM4C, FIH” value (FIH; MALDI, 100 μM α-KG) was 6 fold and the IC50 (KDM4C [2]) was 135 µM.

With O=C(O)c1ccnc(-c2cc(NC(=O)c3ccc(O)cc3)ccc2O)c1 [Compound 35] the “fold selectivity over KDM4C, KDM5B” value (KDM5B (JARID1B, PLU-1)) was “Ml” and the “fold selectivity over KDM4C, FIH” value (FIH; MALDI, 100 μM α-KG) was > 85 fold.

COc1cccc(CC(=O)Nc2ccc(O)c(-c3cc(C(=O)O)ccn3)c2)c1 [Compound 40] was tested, and the “fold selectivity over KDM4C, FIH” value (FIH; MALDI, 100 μM α-KG) was > 68 fold.

For COCC(=O)Nc1ccc(O)c(-c2cc(C(=O)O)ccn2)c1 [Compound 42], the “fold improvement in potency over the parent 5-aminosalicylate fragment” value (KDM4C [3]; TR-FRET IC50 at 2 μM α-KG, 42 vs 5, 21 vs 4) was ~700 fold and the “fold selectivity over KDM4C, FIH” value (FIH; MALDI, 100 μM α-KG) was > 11 fold.

With CC(=O)Nc1ccc(O)c(-c2cc(C(=O)O)ccn2)c1 [Compound 44] the “fold selectivity over KDM4C, KDM2A” value (KDM2A (FBXL11)) was > 6 fold, the “fold selectivity over KDM4C, FIH” value (FIH; MALDI, 100 μM α-KG) was > 8 fold and the “IC50 FIH, MALDI Assays” value (FIH; MALDI, 100 μM α-KG, >500 = no inhibition at 500 μM inhibitor) was “no inhibition”. The “fold selectivity over KDM4C, KDM6B” value (KDM6B (JMJD3)) was > 6 fold.

With CC(=O)Nc1ccc(O)c(C(=O)O)c1 [N-acetyl-5-aminosalicylic acid] the “IC50(μM) 2μM αKG” value (KDM4C [3]; KDM4C, TR-FRET, 2 μM α-KG) was “no inhibition”.
